These results are taken from patent US6995185B2, “Δ1-pyrrolines used as pesticides” (Bayer Cropscience AG, priority 2000, dated 2006).

SMILES strings stand for the structures.

The first series relates to caterpillars of the army worm (Spodoptera frugiperda). The experiment in a line: Spodoptera frugiperda test. In kind it is in vivo. Particulars: 1000 ppm, cabbage leaves (Brassica oleracea) dipped. The method, then: (§1) Spodoptera frugiperda Test • Solvent: 30 parts by weight of dimethylformamide • Emulsifier: 1 part by weight of alkylaryl polyglycol ether To produce a suitable preparation of active compound, 1 part by weight of active compound is mixed with the stated amounts of solvent and emulsifier, and the concentrate is diluted with emulsifier-containing water to the desired concentration. Cabbage leaves (Brassica oleracea) are treated by being dipped into the preparation of active compound of the desired concentration and are populated with caterpillars of the army worm (Spodoptera frugiperda) while the leaves are still moist. After the desired period of time, the kill in % is determined. 100% means that all caterpillars have been killed; 0% means that none of the caterpillars have been killed.
Turning to `N#CC1CC(c2ccccc2Cl)=NC1c1ccc(-c2ccc(OC(F)(F)F)cc2)cc1` (stereo not drawn), the “Kill rate in % after 7 days” value was found to be 100%.

On to `CC(C)c1ccc(-c2ccc(C3N=C(c4ccccc4Cl)CC3C#N)cc2)cc1` (stereo not drawn), for which the “Kill rate in % after 7 days” value was 100%. The same measure, in the same setting: to `COC(=O)C1CC(c2c(F)cccc2F)=NC1c1ccc(-c2ccc(OC(F)(F)F)cc2)cc1` (stereo not drawn) [drawing 151] belongs 100%; to `COC(=O)C1CC(c2ccccc2Cl)=NC1c1ccc(-c2ccc(OC(F)(F)F)cc2)cc1` (stereo not drawn) [drawing 152], 100%.

On to `N#CC1CC(c2c(F)cccc2F)=NC1c1ccc(-c2ccc(OC(F)(F)F)cc2)cc1` (stereo not drawn) [drawing 154], for which the “Kill rate in % after 7 days” value is given as 100%.

The test system of a further series is larvae of the mustard beetle (Phaedon cochloeariae). In words: Phaedon larvae test. In kind it is in vivo. Particulars: 1000 ppm, cabbage leaves (Brassica oleracea) dipped. The method, then: as §1, with “Phaedon larvae Test” for “Spodoptera frugiperda Test”, “with larvae” for “with caterpillars”, “the mustard beetle (Phaedon cochloeariae)” for “the army worm (Spodoptera frugiperda)”, “all beetle larvae” for “all caterpillars”, “the beetle larvae” for “the caterpillars”
Consider `COC(=O)C1CC(c2c(F)cccc2F)=NC1c1ccc(-c2ccc(OC(F)(F)F)cc2)cc1` (stereo not drawn) [drawing 148], for which the “Kill rate in % after 7 days” value turned out to be 100%. On the same count and under the same terms, to `N#CC1CC(c2c(F)cccc2F)=NC1c1ccc(-c2ccc(OC(F)(F)F)cc2)cc1` (stereo not drawn) [drawing 149] belongs 100%; to `COC(=O)C1CC(c2ccccc2Cl)=NC1c1ccc(-c2ccc(OC(F)(F)F)cc2)cc1` (stereo not drawn) [drawing 150], 100%.

The test system of the next series is Meloidogyne icognita. The experiment in a line: Meloidogyne test. In kind it is in vivo. Particulars: 20 ppm, lettuce in sand, nematicidal action by formation of galls. The method, then:
Meloidogyne Test • Solvent: 30 parts by weight of dimethylformamide • Emulsifier: 1 part by weight of alkylaryl polyglycol ether To produce a suitable preparation of active compound, 1 part by weight of active compound is mixed with the stated amounts of solvent and emulsifier, and the concentrate is diluted with emulsifier-containing water to the desired concentration. Vessels are filled with sand, solution of active compound, Meloidogyne icognita egg/larvae suspension and lettuce seeds. The lettuce seeds germinate and the plants develop. On the roots, galls develop. After the desired period of time, the nematicidal action is determined in % by the formation of galls. 100% means that no galls have been found; 0% means that the number of galls on the treated plants corresponds to that of the untreated control.
Consider `COC(=O)C1CC(c2c(F)cccc2F)=NC1c1ccc(-c2ccc(OC(F)(F)F)cc2)cc1` (stereo not drawn) [drawing 146], for which the “Kill rate in % after 14 days” value was 100%. On the same count and under the same terms, with `N#CC1CC(c2c(F)cccc2F)=NC1c1ccc(-c2ccc(OC(F)(F)F)cc2)cc1` (stereo not drawn) [drawing 147] the figure was 90%.

Test system in another series: not listed separately
The experiment in a line: log P determination by HPLC on reversed-phase column (C 18), EEC directive 79/831 Annex V.A8. In kind it is physicochemical. Particulars: reversed-phase HPLC column (C 18), pH 2.3, pH 2.3 (marked a), 0.1% aqueous phosphoric acid/acetonitrile, 43° C. The method, then:
The log P values given in the tables and Preparation Examples above are determined in accordance with EEC directive 79/831 Annex V.A8 by HPLC (High Performance Liquid Chromatography) using a reversed-phase column (C 18). Temperature: 43° C. In the acidic range, the determination is carried out at pH 2.3 using the mobile phases 0.1% aqueous phosphoric acid and acetonitrile; linear gradient from 10% acetonitrile to 90% acetonitrile (marked^a) in the table). In the neutral range, the determination is carried out at pH 7.5 using the mobile phases 0.01-molar aqueous phosphate buffer solution and acetonitrile; linear gradient from 10% acetonitrile to 90% acetonitrile (marked^b) in the table). Calibration is carried out using unbranched alkan-2-ones (having 3 to 16 carbon atoms) with known log P values (determination of the log P values by the retention times using linear interpolation between two successive alkanones).
Broadly, the chromatographic logP is lipophilicity estimated from chromatographic retention. As to `CC(C)NC(=O)[C@H]1CC(c2c(F)cccc2F)=NC1c1ccc(-c2ccc(OC(F)(F)F)cc2)cc1` (stereo partly drawn) [Example 64], the chromatographic logP amounted to 3.74. The compound `CC(C)(C)NC(=O)[C@H]1CC(c2c(F)cccc2F)=NC1c1ccc(-c2ccc(OC(F)(F)F)cc2)cc1` (stereo partly drawn) [Example 65] showed a chromatographic logP of 4.23. Still for that read-out and setting: with `O=C(NC1CCCCC1)[C@H]1CC(c2c(F)cccc2F)=NC1c1ccc(-c2ccc(OC(F)(F)F)cc2)cc1` (stereo partly drawn) [Example 66] the figure was 4.37; with `CN(C)C(=O)[C@H]1CC(c2c(F)cccc2F)=NC1c1ccc(-c2ccc(OC(F)(F)F)cc2)cc1` (stereo partly drawn) [Example 67], 3.61; with `CCN(C)C(=O)[C@H]1CC(c2c(F)cccc2F)=NC1c1ccc(-c2ccc(OC(F)(F)F)cc2)cc1` (stereo partly drawn) [Example 68], 3.9.

As to `CCCN(C)C(=O)[C@H]1CC(c2c(F)cccc2F)=NC1c1ccc(-c2ccc(OC(F)(F)F)cc2)cc1` (stereo partly drawn) [Example 69], the chromatographic logP worked out at 4.23. Compound `CCCCN(C)C(=O)[C@H]1CC(c2c(F)cccc2F)=NC1c1ccc(-c2ccc(OC(F)(F)F)cc2)cc1` (stereo partly drawn) [Example 70] displayed a chromatographic logP of 4.56. Same read-out and setting: to `CCCCCN(C)C(=O)[C@H]1CC(c2c(F)cccc2F)=NC1c1ccc(-c2ccc(OC(F)(F)F)cc2)cc1` (stereo partly drawn) [Example 71] belongs 4.92; to `CCN(CC)C(=O)[C@H]1CC(c2c(F)cccc2F)=NC1c1ccc(-c2ccc(OC(F)(F)F)cc2)cc1` (stereo partly drawn) [Example 72], 4.18; to `CCCN(CCC)C(=O)[C@H]1CC(c2c(F)cccc2F)=NC1c1ccc(-c2ccc(OC(F)(F)F)cc2)cc1` (stereo partly drawn) [Example 73], 4.92.

Compound `CCCCN(CCCC)C(=O)[C@H]1CC(c2c(F)cccc2F)=NC1c1ccc(-c2ccc(OC(F)(F)F)cc2)cc1` (stereo partly drawn) [Example 74] came in with a chromatographic logP of 5.65. The same measure, in the same setting: to `CCCCCN(CCCCC)C(=O)[C@H]1CC(c2c(F)cccc2F)=NC1c1ccc(-c2ccc(OC(F)(F)F)cc2)cc1` (stereo partly drawn) [Example 75] belongs 6.43. With `O=C([C@H]1CC(c2c(F)cccc2F)=NC1c1ccc(-c2ccc(OC(F)(F)F)cc2)cc1)N1CCCC1` (stereo partly drawn) [Example 76], the chromatographic logP came to 3.82.

`O=C([C@H]1CC(c2c(F)cccc2F)=NC1c1ccc(-c2ccc(OC(F)(F)F)cc2)cc1)N1CCCCC1` (stereo partly drawn) [Example 77] gave a chromatographic logP of 4.32. On the same count and under the same terms, to `O=C(NCc1ccccc1)[C@H]1CC(c2c(F)cccc2F)=NC1c1ccc(-c2ccc(OC(F)(F)F)cc2)cc1` (stereo partly drawn) [Example 78] belongs 3.94. Still for that read-out and setting: to `O=C(NCc1ccccc1Cl)[C@H]1CC(c2c(F)cccc2F)=NC1c1ccc(-c2ccc(OC(F)(F)F)cc2)cc1` (stereo partly drawn) [Example 79] belongs 4.46. Same read-out and setting: with `O=C(NCc1cccc(Cl)c1)[C@H]1CC(c2c(F)cccc2F)=NC1c1ccc(-c2ccc(OC(F)(F)F)cc2)cc1` (stereo partly drawn) [Example 80] the figure was 4.46; with `O=C(NCc1ccc(Cl)cc1)[C@H]1CC(c2c(F)cccc2F)=NC1c1ccc(-c2ccc(OC(F)(F)F)cc2)cc1` (stereo partly drawn) [Example 81], 4.41; with `O=C(NCC1CCCCC1)[C@H]1CC(c2c(F)cccc2F)=NC1c1ccc(-c2ccc(OC(F)(F)F)cc2)cc1` (stereo partly drawn) [Example 82], 4.67. With `O=C(NCC1CCCO1)[C@H]1CC(c2c(F)cccc2F)=NC1c1ccc(-c2ccc(OC(F)(F)F)cc2)cc1` (stereo partly drawn) [Example 83], the chromatographic logP was determined as 3.48. On the same count and under the same terms, to `COCCNC(=O)[C@H]1CC(c2c(F)cccc2F)=NC1c1ccc(-c2ccc(OC(F)(F)F)cc2)cc1` (stereo partly drawn) [Example 84] belongs 3.33; to `O=C(NCc1cccs1)[C@H]1CC(c2c(F)cccc2F)=NC1c1ccc(-c2ccc(OC(F)(F)F)cc2)cc1` (stereo partly drawn) [Example 85], 4.03; to `O=C(NCC(F)(F)F)[C@H]1CC(c2c(F)cccc2F)=NC1c1ccc(-c2ccc(OC(F)(F)F)cc2)cc1` (stereo partly drawn) [Example 86], 3.94. Turning to `O=C(Nc1nccs1)[C@H]1CC(c2c(F)cccc2F)=NC1c1ccc(-c2ccc(OC(F)(F)F)cc2)cc1` (stereo partly drawn) [Example 87], the chromatographic logP stood at 3.78.

The compound `COC(=O)c1cnc(NC(=O)[C@H]2CC(c3c(F)cccc3F)=NC2c2ccc(-c3ccc(OC(F)(F)F)cc3)cc2)s1` (stereo partly drawn) [Example 88] showed a chromatographic logP of 3.94. The same measure, in the same setting: with `O=C(NC1CCC(C(F)(F)F)CC1)[C@H]1CC(c2c(F)cccc2F)=NC1c1ccc(-c2ccc(OC(F)(F)F)cc2)cc1` (stereo partly drawn) [Example 89] the figure was 4.46; with `O=C([C@H]1CC(c2c(F)cccc2F)=NC1c1ccc(-c2ccc(OC(F)(F)F)cc2)cc1)N1CCOCC1` (stereo partly drawn) [Example 90], 3.49. Still for that read-out and setting: with `Cc1ccc(CNC(=O)[C@H]2CC(c3c(F)cccc3F)=NC2c2ccc(-c3ccc(OC(F)(F)F)cc3)cc2)cc1` (stereo partly drawn) [Example 91] the figure was 4.37; with `O=C(Nc1ccc(OC(F)(F)F)cc1)[C@H]1CC(c2c(F)cccc2F)=NC1c1ccc(-c2ccc(OC(F)(F)F)cc2)cc1` (stereo partly drawn) [Example 92], 4.87; with `O=C(NCc1ccc(Cl)cc1Cl)[C@H]1CC(c2c(F)cccc2F)=NC1c1ccc(-c2ccc(OC(F)(F)F)cc2)cc1` (stereo partly drawn) [Example 93], 4.87.

With `COc1ccccc1CNC(=O)[C@H]1CC(c2c(F)cccc2F)=NC1c1ccc(-c2ccc(OC(F)(F)F)cc2)cc1` (stereo partly drawn) [Example 94], the chromatographic logP was determined as 4.18.

`COc1cccc(CNC(=O)[C@H]2CC(c3c(F)cccc3F)=NC2c2ccc(-c3ccc(OC(F)(F)F)cc3)cc2)c1OC` (stereo partly drawn) [Example 95] had a chromatographic logP of 4.03. The same measure, in the same setting: with `Cc1cc(C)cc(CNC(=O)[C@H]2CC(c3c(F)cccc3F)=NC2c2ccc(-c3ccc(OC(F)(F)F)cc3)cc2)c1` (stereo partly drawn) [Example 96] the figure was 4.72; with `O=C(NCc1ccc(F)cc1F)[C@H]1CC(c2c(F)cccc2F)=NC1c1ccc(-c2ccc(OC(F)(F)F)cc2)cc1` (stereo partly drawn) [Example 97], 4.23; with `Cc1cccc(CNC(=O)[C@H]2CC(c3c(F)cccc3F)=NC2c2ccc(-c3ccc(OC(F)(F)F)cc3)cc2)c1` (stereo partly drawn) [Example 98], 4.41.
